{
  "source": "ChEMBL document CHEMBL1201862",
  "about": "“PubChem BioAssay data set” (2004)",
  "key": {"Streptococcus": {"test_system": "Streptococcus", "experiment": "GAS UMAA2166 growth inhibition – luminescence, BacTiterGlo, counter-screen for streptokinase expression inhibitor project, dose response (AID 1915);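 note: potency for reduction of bacterial viability or growth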", "format": "functional, organism-based"}, "[1]": {"test_system": "Streptococcus sp. 'group A'", "experiment": "Streptococcus pyogenes SK(-)GAS viability under kanamycin – luminescence, BacTiterGlo, confirmation, counter-screen for streptokinase expression inhibitor project, dose response (AID 1900)", "format": "functional, organism-based"}, "Streptokinase A": {"target": "T1, Streptokinase A (Streptococcus pyogenes serotype M1, UniProt P10520)", "T1 sequence (P10520 whole entry)": "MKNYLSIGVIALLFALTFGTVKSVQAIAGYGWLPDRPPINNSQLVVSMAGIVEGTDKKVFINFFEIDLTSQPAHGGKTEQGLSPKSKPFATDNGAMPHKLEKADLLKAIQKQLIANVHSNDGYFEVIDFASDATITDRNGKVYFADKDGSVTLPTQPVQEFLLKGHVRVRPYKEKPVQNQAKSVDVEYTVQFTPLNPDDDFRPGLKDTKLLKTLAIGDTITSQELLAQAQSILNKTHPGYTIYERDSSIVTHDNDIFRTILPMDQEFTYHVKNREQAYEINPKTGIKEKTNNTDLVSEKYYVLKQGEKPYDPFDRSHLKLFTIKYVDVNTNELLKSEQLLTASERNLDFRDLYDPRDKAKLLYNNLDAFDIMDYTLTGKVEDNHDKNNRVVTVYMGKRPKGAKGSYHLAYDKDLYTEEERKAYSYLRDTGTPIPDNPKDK", "experiment": "viability-normalized secreted streptokinase activity reduction – plasminogen activation absorbance, OD405, dose response (AID 1914);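 note: secreted streptokinase activity via plasminogen activation per viability signal from cell pellet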", "format": "functional, Streptococcus pyogenes M1 GAS"}, "[2]": {"experiment": "Trypanosoma cruzi growth suppression in host cells – NIH3T3 host cells, beta-gal luminescence, confirmation (AID 2044);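 note: intracellular parasites grown in NIH/3T3 mouse fibroblasts as host cells; luminescent beta-galactosidase reporter signal from transgenic T. cruzi replicating inside host cells; inhibitors lower the luminescence signal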", "format": "functional, cell-based"}, "[3]": {"experiment": "NIH3T3 cell viability loss – ATP luminescence, mouse fibroblasts, counter-screen, dose response (AID 2010);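 note: cells exposed to compound for about 90 hours before reading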", "format": "functional, cell-based"}, "Cytochrome P450 2C19": {"target": "Cytochrome P450 2C19 (Homo sapiens, UniProt P33261)", "sequence (P33261 whole entry)": "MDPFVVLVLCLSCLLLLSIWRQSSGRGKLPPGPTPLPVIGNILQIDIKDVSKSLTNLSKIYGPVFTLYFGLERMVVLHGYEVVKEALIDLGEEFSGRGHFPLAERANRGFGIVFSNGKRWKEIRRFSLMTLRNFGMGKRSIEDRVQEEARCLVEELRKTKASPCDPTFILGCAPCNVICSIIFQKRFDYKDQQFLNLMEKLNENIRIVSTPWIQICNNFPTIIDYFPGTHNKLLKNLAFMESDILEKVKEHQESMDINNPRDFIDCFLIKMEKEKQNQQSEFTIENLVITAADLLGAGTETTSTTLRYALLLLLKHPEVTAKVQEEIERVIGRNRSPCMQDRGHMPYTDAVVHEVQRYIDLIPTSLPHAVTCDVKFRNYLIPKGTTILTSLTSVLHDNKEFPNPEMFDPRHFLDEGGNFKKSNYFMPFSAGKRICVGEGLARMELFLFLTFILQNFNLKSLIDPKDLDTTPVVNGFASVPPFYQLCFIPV", "experiment": "Cytochrome panel assay with activity outcomes. Panel member name: p450-cyp2c19 Compounds with AC50 equal or less than 10 uM are considered active", "format": "functional", "details": "read-out: AC50"}, "[4]": {"experiment": "viability of uninfected HEp-2 cells – cell-based, HTS, cytotoxicity control for RSV inhibitor project, dose response (AID 2410)", "format": "functional", "details": "human respiratory syncytial virus"}, "Cytochrome P450 2D6": {"target": "Cytochrome P450 2D6 (Homo sapiens, UniProt P10635)", "sequence (P10635 whole entry)": "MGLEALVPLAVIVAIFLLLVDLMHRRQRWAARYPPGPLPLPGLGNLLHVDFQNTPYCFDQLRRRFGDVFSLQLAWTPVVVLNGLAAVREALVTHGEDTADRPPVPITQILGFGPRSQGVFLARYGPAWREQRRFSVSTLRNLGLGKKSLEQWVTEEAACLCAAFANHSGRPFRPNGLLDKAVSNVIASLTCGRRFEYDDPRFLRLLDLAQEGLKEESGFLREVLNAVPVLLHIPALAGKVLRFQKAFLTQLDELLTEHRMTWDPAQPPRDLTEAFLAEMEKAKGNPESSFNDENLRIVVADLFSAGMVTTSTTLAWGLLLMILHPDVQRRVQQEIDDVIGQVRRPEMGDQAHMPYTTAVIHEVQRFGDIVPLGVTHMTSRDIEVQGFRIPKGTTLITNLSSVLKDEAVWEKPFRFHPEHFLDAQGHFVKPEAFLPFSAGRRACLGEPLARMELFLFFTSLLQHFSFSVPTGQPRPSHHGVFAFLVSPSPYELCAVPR"}, "Cytochrome P450 3A4": {"target": "Cytochrome P450 3A4 (Homo sapiens, UniProt P08684)", "sequence (P08684 whole entry)": "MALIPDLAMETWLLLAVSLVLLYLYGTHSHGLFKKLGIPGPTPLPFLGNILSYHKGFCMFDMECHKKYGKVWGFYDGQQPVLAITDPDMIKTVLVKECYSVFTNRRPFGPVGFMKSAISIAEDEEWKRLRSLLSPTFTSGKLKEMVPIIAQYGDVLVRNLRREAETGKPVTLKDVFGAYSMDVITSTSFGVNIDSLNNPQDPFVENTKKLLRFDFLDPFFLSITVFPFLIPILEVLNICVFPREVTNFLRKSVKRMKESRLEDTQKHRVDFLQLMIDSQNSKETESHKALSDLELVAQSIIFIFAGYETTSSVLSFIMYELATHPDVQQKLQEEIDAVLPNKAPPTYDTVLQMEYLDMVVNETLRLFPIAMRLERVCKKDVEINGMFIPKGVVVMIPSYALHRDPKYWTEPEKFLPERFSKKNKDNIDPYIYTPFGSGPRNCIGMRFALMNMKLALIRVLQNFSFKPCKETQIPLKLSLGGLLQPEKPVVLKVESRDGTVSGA"}},
  "note": "The source made the active and inactive calls.",
  "data": [
    {"smiles": "COc1ccc(N2CC(C(=O)Nc3nnc(SCc4cccnc4)s3)CC2=O)cc1", "note": "(stereo unspecified)", "values": [
      {"measurement": "EC50", "setting": "Streptococcus", "result": "> 150 µM (not active)"},
      {"measurement": "EC50", "setting": "[1]", "result": "> 150 µM (not active)"},
      {"measurement": "EC50", "setting": "Streptokinase A", "result": "> 150 µM (not active)"}
    ]},
    {"smiles": "COc1ccccc1N1CCN(C/C=C/c2ccc(N(C)C)cc2)CC1", "values": [
      {"measurement": "EC50", "setting": "[2]", "result": "1.46 µM (active)"},
      {"measurement": "EC50", "setting": "[3]", "result": "> 60 µM (not active)"}
    ]},
    {"smiles": "Cc1ccc(C(c2nnnn2C2CCCC2)N2CCN3CCCC3C2)cc1", "note": "(stereo unspecified)", "values": [
      {"measurement": "AC50", "setting": "Cytochrome P450 2C19", "result": "31.6 µM (inconclusive)"}
    ]},
    {"smiles": "Cc1c(-c2cccc(Cl)c2)nc2ccccc2c1C(=O)OCC(=O)Nc1ccc2c(c1)OCO2", "values": [
      {"measurement": "CC50", "setting": "[4]", "result": "16.3 µM (active)"},
      {"measurement": "EC50", "setting": "[2]", "result": "2.22 µM (active)"},
      {"measurement": "EC50", "setting": "[3]", "result": "> 60 µM (not active)"}
    ]},
    {"smiles": "Cn1nc(C(=O)NC2CCCCC2)c2ccccc2c1=O", "values": [
      {"measurement": "AC50", "setting": "Cytochrome P450 2D6", "result": "10 µM (inconclusive)"},
      {"measurement": "AC50", "setting": "Cytochrome P450 3A4", "result": "5.01 µM (inconclusive)"}
    ]},
    {"smiles": "Cc1c(Cc2ccccc2)c(=O)oc2cc(OCc3ccc(C(=O)O)cc3)ccc12", "values": [
      {"measurement": "EC50", "setting": "Streptococcus", "result": "> 50 µM (not active)"},
      {"measurement": "EC50", "setting": "[1]", "result": "7.39 µM (active)"},
      {"measurement": "EC50", "setting": "Streptokinase A", "result": "> 150 µM (not active)"}
    ]},
    {"smiles": "COc1cccc(CC2(CO)CCCN(C/C=C/c3ccccc3OC)C2)c1", "note": "(stereo unspecified)", "values": [
      {"measurement": "EC50", "setting": "[2]", "result": "0.209 µM (active)"},
      {"measurement": "EC50", "setting": "[3]", "result": "> 60 µM (inconclusive)"}
    ]},
    {"smiles": "CCCCCC(=O)Nc1cccc(C2=NOC3(C2)C[C@@H](C(N)=O)N(C(=O)c2ccc(Cl)cc2)C3)c1", "note": "(stereo partly specified)", "values": [
      {"measurement": "EC50", "setting": "[2]", "result": "0.374 µM (active)"},
      {"measurement": "EC50", "setting": "[3]", "result": "> 30 µM (not active)"}
    ]},
    {"smiles": "Cc1cc(Br)ccc1NC(=O)CN1C(=O)C2C3CC(c4ccccc4)C(C3)C2C1=O", "note": "(stereo unspecified)", "values": [
      {"measurement": "EC50", "setting": "[2]", "result": "2.6 µM (active)"},
      {"measurement": "EC50", "setting": "[3]", "result": "> 60 µM (not active)"}
    ]},
    {"smiles": "Cc1ccc(S(=O)(=O)Nc2ccc(Cl)cc2)cc1NC(=O)c1cc2c(s1)CCCC2", "values": [
      {"measurement": "EC50", "setting": "Streptococcus", "result": "14.9 µM (active)"},
      {"measurement": "EC50", "setting": "[1]", "result": "4.39 µM (active)"},
      {"measurement": "EC50", "setting": "[2]", "result": "1.18 µM (active)"},
      {"measurement": "EC50", "setting": "[3]", "result": "25.8 µM (active)"},
      {"measurement": "EC50", "setting": "Streptokinase A", "result": "> 150 µM (not active)"}
    ]},
    {"smiles": "COc1ccccc1-c1cc(-c2ccccc2)nc(SCC(=O)O)c1C#N", "values": [
      {"measurement": "EC50", "setting": "Streptococcus", "result": "13.4 µM (active)"},
      {"measurement": "EC50", "setting": "[1]", "result": "3.36 µM (active)"},
      {"measurement": "EC50", "setting": "Streptokinase A", "result": "1.72 µM (active)"}
    ]},
    {"smiles": "C/C(CCN1CCCc2nc(C)c(C)cc21)=N\\OC[C@@H](O)COCc1ccco1", "values": [
      {"measurement": "AC50", "setting": "Cytochrome P450 2D6", "result": "3.16 µM (inconclusive)"}
    ]},
    {"smiles": "COc1ccc2sc(N(CCCN(C)C)C(=O)c3ccc(S(=O)(=O)N4CCCc5ccccc54)cc3)nc2c1", "values": [
      {"measurement": "EC50", "setting": "[2]", "result": "0.139 µM (active)"},
      {"measurement": "EC50", "setting": "[3]", "result": "5.35 µM (active)"}
    ]},
    {"smiles": "CCc1ncc(CO)n1Cc1cccc2ccccc12", "values": [
      {"measurement": "AC50", "setting": "Cytochrome P450 2C19", "result": "0.398 µM (inconclusive)"}
    ]},
    {"smiles": "CNc1ccnc(-c2ccccc2C(F)(F)F)n1", "values": [
      {"measurement": "AC50", "setting": "Cytochrome P450 2C19", "result": "25.1 µM (inconclusive)"},
      {"measurement": "AC50", "setting": "Cytochrome P450 3A4", "result": "25.1 µM (inconclusive)"}
    ]},
    {"smiles": "COc1ccc(OC)c(-c2cc(C(=O)Nc3cccc(Cl)c3)no2)c1", "values": [
      {"measurement": "EC50", "setting": "[2]", "result": "2.43 µM (active)"},
      {"measurement": "EC50", "setting": "[3]", "result": "> 30 µM (not active)"}
    ]},
    {"smiles": "CCCS(=O)(=O)N1CCCC(C(=O)NCCN(C)Cc2ccccc2)C1", "note": "(stereo unspecified)", "values": [
      {"measurement": "AC50", "setting": "Cytochrome P450 2D6", "result": "5.01 µM (inconclusive)"}
    ]},
    {"smiles": "N#Cc1cccc(NC(=O)N2CC[C@@]3(CCCNC3)C2)c1", "values": [
      {"measurement": "AC50", "setting": "Cytochrome P450 3A4", "result": "25.1 µM (inconclusive)"}
    ]},
    {"smiles": "Cn1c(S)nnc1-c1cc(Br)ccc1O", "values": [
      {"measurement": "EC50", "setting": "Streptococcus", "result": "> 150 µM (not active)"},
      {"measurement": "EC50", "setting": "[1]", "result": "11 µM (active)"}
    ]},
    {"smiles": "Nc1ncnc(Nc2cccc(Cl)c2Cl)n1", "values": [
      {"measurement": "CC50", "setting": "[4]", "result": "26.1 µM (active)"}
    ]},
    {"smiles": "COc1ccc(C2C(=O)N(CCc3ccccc3)CC(=O)N2C2CCCC2)cc1", "note": "(stereo unspecified)", "values": [
      {"measurement": "AC50", "setting": "Cytochrome P450 2D6", "result": "14.1 µM (inconclusive)"}
    ]},
    {"smiles": "CN(C)c1ncc2nc(-c3cccs3)c(=O)n(Cc3cccs3)c2n1", "values": [
      {"measurement": "AC50", "setting": "Cytochrome P450 3A4", "result": "3.16 µM (inconclusive)"}
    ]},
    {"smiles": "CCOC(=O)c1c(-c2cccs2)csc1NC(=O)C(C)(C)C", "values": [
      {"measurement": "CC50", "setting": "[4]", "result": "49.8 µM (active)"}
    ]},
    {"smiles": "COCCNc1nc(-c2ccc(N(C)C)cc2)nc2ccccc12", "values": [
      {"measurement": "AC50", "setting": "Cytochrome P450 2D6", "result": "39.8 µM (inconclusive)"}
    ]},
    {"smiles": "CC(C)(C)c1ccc(O)c(/N=C/c2c(O)ccc3ccccc23)c1", "values": [
      {"measurement": "EC50", "setting": "Streptococcus", "result": "> 150 µM (not active)"},
      {"measurement": "EC50", "setting": "[1]", "result": "5.5 µM (active)"},
      {"measurement": "EC50", "setting": "Streptokinase A", "result": "> 150 µM (not active)"}
    ]},
    {"smiles": "Cc1ccc(C)c(/C=N/NC(=S)NCCc2ccccc2)c1", "values": [
      {"measurement": "EC50", "setting": "Streptococcus", "result": "> 150 µM (not active)"},
      {"measurement": "EC50", "setting": "[1]", "result": "32.3 µM (active)"},
      {"measurement": "EC50", "setting": "Streptokinase A", "result": "> 150 µM (not active)"}
    ]},
    {"smiles": "COc1ccccc1N(CC(=O)N/N=C/c1ccc(OCC(=O)NCc2ccco2)cc1)S(=O)(=O)c1ccc(C)cc1", "values": [
      {"measurement": "CC50", "setting": "[4]", "result": "42.5 µM (active)"}
    ]},
    {"smiles": "Nc1cc(Cl)nc(N/N=C/c2ccccc2[N+](=O)[O-])n1", "values": [
      {"measurement": "AC50", "setting": "Cytochrome P450 2C19", "result": "8.91 µM (inconclusive)"}
    ]},
    {"smiles": "C/C(=N\\NC(N)=O)c1ccccc1Cl", "values": [
      {"measurement": "CC50", "setting": "[4]", "result": "19.4 µM (active)"}
    ]},
    {"smiles": "Cc1c(-c2ccc(O)cc2)nn(-c2ccc(O)cc2)c1-c1ccc(OCCN2CCCCC2)cc1", "values": [
      {"measurement": "AC50", "setting": "Cytochrome P450 3A4", "result": "3.16 µM (inconclusive)"}
    ]},
    {"smiles": "CCc1ccc(C2=Nn3c(nnc3-c3cccs3)SC2)cc1", "values": [
      {"measurement": "AC50", "setting": "Cytochrome P450 2C19", "result": "5.62 µM (inconclusive)"}
    ]}
  ]
}
